Measurements from patent publication US7285546B2, “Cephalotaxanes, their method of preparation and their use in treatment of cancers, leukemias, parasites including those resistant to usual chemotherapeutic agents and as reversal agents” (Stragen Pharma S.A., priority 2000, dated 2007).
≈ marks a conversion by molar mass, not a printed value. Like-named read-outs stand apart in the source and are kept apart here.

Columns and labels:
K562 cell line = assay: MTT test of structural analogues of harringtonines on K562 cell line; assay type: cell-based
Description: (§1) Structural analogues of harringtonines described in this invention were tested on K562 cell line, derived from chronic myeloid leukemia cells in blastic transformation (bcr-abl positive). The cell line was purchased from ATCC (American Tissue Culture Collection) and grown in RPMI medium supplemented with 10% heat-inactivated fetal calf serum, 2 mmol/L glutamine, […] penicillin and […] streptomycin. All tested products were initially dissolved in […] (pH=2), supplemented with ultrasound treatment during 1 h. Working concentrations were made by dilution in culture medium (pH around 7). Cells in exponential growth phase were placed into 96-microwell plates in concentration 3×10^4/mL (total volume 200 μL/well) and incubated with drugs for 72 h at 37° C. in 5% CO2 humidified atmosphere. Following incubation, 2 μL of MTT solution (Sigma, St. Louis, Mo.) was added to each well. During the following 6 h of incubation at 37° C., the purple formazan product was formed by conversion of the yellow MTT salt in the mitochondria of the viable cells. The resulting precipitate was dissolved in DMSO and the amount of converted MTT was quantified in an ELISA reader (MR 5000, Dynatech). Each product was tested in triplicate (3×8 wells). Every test contained at least one plate with HHT as control, added in the same concentration as the tested products.

K562MRP = assay: MTT test on K562MRP, homoharringtonine-resistant subline of K562; assay type: cell-based; conditions: K562MRP subline resistant to 50 ng/mL homoharringtonine, same method as K562
Description: as §1

Row | SMILES | IC50 (K562 cell line; Homo sapiens, K562, 72 h) | also measured
1 | CC=CC=CCOC(=O)C[C@](O)(CCCC(C)(C)O)C(=O)O[C@@H]1C(OC)=C[C@]23CCCN2CCc2cc4c(cc2[C@H]13)OCO4 [Example 43, (2′R)-4′-(hexa-2,4-dienyl)-4′-demethyl-homoharringtonine] | – | IC50 (K562 cell line; K562 cell line, 72 h incubation, MTT): 0.0035 µg/mL (≈ 0.00572 µM); IC50 (K562MRP): 0.016 µg/mL (≈ 0.0262 µM)
2 | [2H]C([2H])OC(=O)C[C@](O)(CCCC(C)(C)O)C(=O)OC1C(OC)=C[C@@]23CCCN2CCc2cc4c(cc2[C@H]13)OCO4 (stereo partly drawn) [Example 87, (2′R)-(4′-^2H2)homoharringtonine] | – | IC50 (K562 cell line; Homo sapiens, K562 cell line, 72 h incubation, MTT, read-out: IC50): 0.021 µg/mL (≈ 0.0383 µM)
3 | COC(=O)C[C@](O)(CCC=C(C)C)C(=O)OC1C(OC)=C[C@@]23CCCN2CCc2cc4c(cc2[C@H]13)OCO4 (stereo partly drawn) [Example 61, 4-methyl (2R)-2-hydroxy-2-(4-methyl-pent-3-enyl)succinate of (−)-cephalotaxine] | 0.0175 µg/mL (≈ 0.0332 µM) | –
4 | CC#CCOC(=O)C[C@](O)(CCCC(C)(C)O)C(=O)OC1C(OC)=C[C@@]23CCCN2CCc2cc4c(cc2[C@H]13)OCO4 (stereo partly drawn) [Example 42, (2′R)-4′-(2-butynyl)-4′-demethyl-homoharringtonine] | 0.0105 µg/mL (≈ 0.018 µM) | –
5 | CC=CCOC(=O)C[C@](O)(CCCC(C)(C)O)C(=O)OC1[C@H]2c3cc4c(cc3[C@@H]3CN5CCC[C@@]25C[C@@]1(OC)O3)OCO4 (stereo partly drawn) [Example 56, 4-(2-butenyl) (2R)-2-hydroxy-2-(4-hydroxy-4-methylpentyl)succinate of (−)-drupacine] | 0.0135 µg/mL (≈ 0.0224 µM) | –
6 | CCSC(=O)C[C@](O)(CCCC(C)(C)O)C(=O)OC1C(OC)=C[C@@]23CCCN2CCc2cc4c(cc2[C@H]13)OCO4 (stereo partly drawn) [Example 32, (2′R)-4′-ethylthio-4′-demethoxy-homoharringtonine] | 0.08 µg/mL (≈ 0.139 µM) | –
7 | CCCCOC(=O)C[C@](O)(CCCC(C)(C)O)C(=O)OC1C(OC)=C[C@@]23CCCN2CCc2cc4c(cc2[C@H]13)OCO4 (stereo partly drawn) [Example 50, (2′R)-4′-butyl-4′-demethyl-homoharringtonine] | 0.013 µg/mL (≈ 0.0221 µM) | –
8 | COC1=C[C@@]23CCCN2CCc2cc4c(cc2[C@@H]3C1OC(=O)[C@@](O)(CCCC(C)(C)O)CC(=O)Oc1ccccc1)OCO4 (stereo partly drawn) [Example 79, (2′R)-4′-phenoxy-4′-demethylhomoharringtonine] | 0.01 µg/mL (≈ 0.0165 µM) | –
9 | COC1=C[C@@]23CCCN2CCc2cc4c(cc2[C@@H]3C1OC(=O)[C@@](O)(CCCC(C)(C)O)CC(=O)OCCCCCO)OCO4 (stereo partly drawn) [Example 74, (2′R)-4′-(5-hydroxypentyl)-4′-demethyl-homo harringtonine] | 0.024 µg/mL (≈ 0.0389 µM) | –
